According to patent US20220089578A1, “COMPOUNDS AS GLP-1R AGONISTS” (Terns Pharmaceuticals, Inc., priority 2020, published 2022):

Target: human GLP-1R (Homo sapiens, UniProt P43220)
Experiment: GLP-1R Cell Assay 1: cAMP Hunter CHO-K1 GLP1R Gs cell line, HitHunter cAMP assay
Type: cell-based
Details: Table 2; cAMP Hunter CHO-K1 GLP1R Gs cells; percent activity normalized to Exendin-4
How it was run: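 CHO-K1 cells overexpressing wild-type human GLP-1R treated with 3-fold serially diluted compounds for 30-60 min at 37 °C. cAMP measured by EFC competitive luminescent immunoassay; activity normalised to Exendin-4, duplicate runs, EC50 by nonlinear regression.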

Sequence of human GLP-1R (P43220 24-463): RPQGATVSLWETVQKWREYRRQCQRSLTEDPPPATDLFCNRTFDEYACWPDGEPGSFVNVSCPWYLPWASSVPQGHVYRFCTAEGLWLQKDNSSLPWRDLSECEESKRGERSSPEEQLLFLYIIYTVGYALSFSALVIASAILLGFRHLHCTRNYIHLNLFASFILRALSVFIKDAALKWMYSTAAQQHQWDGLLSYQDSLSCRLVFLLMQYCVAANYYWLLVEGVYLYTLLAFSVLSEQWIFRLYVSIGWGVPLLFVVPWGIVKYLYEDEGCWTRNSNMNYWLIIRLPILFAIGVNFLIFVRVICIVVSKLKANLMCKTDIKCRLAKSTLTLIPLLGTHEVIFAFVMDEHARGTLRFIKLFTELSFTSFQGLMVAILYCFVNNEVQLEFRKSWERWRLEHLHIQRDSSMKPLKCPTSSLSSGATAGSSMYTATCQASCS

| SMILES | EC50 [nM] |
| --- | --- |
| NC(=O)c1ccc2c(c1)CCN(c1cccc(N3CCN(Cc4nc5ccc(C(=O)O)cc5n4C[C@@H]4CCO4)CC3)n1)C2 [Compound 59, (S)-2-((4-(6-(6-carbamoyl-3,4-dihydroisoquinolin-2(1H)-yl)pyridin-2-yl)piperazin-1-yl)methyl)-1-(oxetan-2-ylmethyl)-1H-benzo[d]imidazole-6-carboxylic acid] | 228 |
| N#Cc1ccc2c(c1)CCN(c1cccc(N3CCN(Cc4nc5ccc(C(=O)O)cc5n4C[C@@H]4CCO4)CC3)n1)C2 [Compound 60, (S)-2-((4-(6-(6-cyano-3,4-dihydroisoquinolin-2(1H)-yl)pyridin-2-yl)piperazin-1-yl)methyl)-1-(oxetan-2-ylmethyl)-1H-benzo[d]imidazole-6-carboxylic acid] | 8.18 |
| N#CC1(COc2cccc(N3CCN(Cc4nc5ccc(C(=O)O)cc5n4C[C@@H]4CCO4)CC3)n2)COC1 [Compound 61, (S)-2-((4-(6-((3-cyanooxetan-3-yl)methoxy)pyridin-2-yl)piperazin-1-yl)methyl)-1-(oxetan-2-ylmethyl)-1H-benzo[d]imidazole-6-carboxylic acid] | > 500 |
| N#Cc1ccc(COc2cccc(N3CCN(Cc4nc5ccc(C(=O)O)cc5n4C[C@@H]4CCO4)CC3)n2)nc1 [Compound 62, (S)-2-((4-(6-((5-cyanopyridin-2-yl)methoxy)pyridin-2-yl)piperazin-1-yl)methyl)-1-(oxetan-2-ylmethyl)-1H-benzo[d]imidazole-6-carboxylic acid] | 0.86 |
| CN(Cc1ccc(C#N)cc1)c1cccc(N2CCN(Cc3nc4ccc(C(=O)O)cc4n3C[C@@H]3CCO3)CC2)n1 [Compound 63, (S)-2-((4-(6-((4-cyanobenzyl)(methyl)amino)pyridin-2-yl)piperazin-1-yl)methyl)-1-(oxetan-2-ylmethyl)-1H-benzo[d]imidazole-6-carboxylic acid] | 54.5 |
| CN(Cc1ccc(C(N)=O)cc1)c1cccc(N2CCN(Cc3nc4ccc(C(=O)O)cc4n3C[C@@H]3CCO3)CC2)n1 [Compound 64, (S)-2-((4-(6-((4-carbamoylbenzyl)(methyl)amino)pyridin-2-yl)piperazin-1-yl)methyl)-1-(oxetan-2-ylmethyl)-1H-benzo[d]imidazole-6-carboxylic acid] | > 500 |
| O=C(O)c1ccc2nc(CN3CCN(c4cccc(OCc5cc6ccccc6s5)n4)CC3)n(C[C@@H]3CCO3)c2c1 [Compound 65, (S)-2-((4-(6-(benzo[b]thiophen-2-ylmethoxy)pyridin-2-yl)piperazin-1-yl)methyl)-1-(oxetan-2-ylmethyl)-1H-benzo[d]imidazole-6-carboxylic acid] | 0.998 |
| N#Cc1ccc2c(c1)CN(c1cccc(N3CCN(Cc4nc5ccc(C(=O)O)cc5n4C[C@@H]4CCO4)CC3)n1)CCC2 [Compound 66, (S)-2-((4-(6-(8-cyano-1,3,4,5-tetrahydro-2H-benzo[c]azepin-2-yl)pyridin-2-yl)piperazin-1-yl)methyl)-1-(oxetan-2-ylmethyl)-1H-benzo[d]imidazole-6-carboxylic acid] | 135 |
| O=C(O)c1ccc2nc(CN3CCN(c4cccc(OCc5nc6ccccc6o5)n4)CC3)n(C[C@@H]3CCO3)c2c1 [Compound 67, (S)-2-((4-(6-(benzo[d]oxazol-2-ylmethoxy)pyridin-2-yl)piperazin-1-yl)methyl)-1-(oxetan-2-ylmethyl)-1H-benzo[d]imidazole-6-carboxylic acid] | 0.849 |
| O=C(O)c1ccc2nc(CN3CCN(c4cccc(OCc5cc6ccccc6o5)n4)CC3)n(C[C@@H]3CCO3)c2c1 [Compound 68, (S)-2-((4-(6-(benzofuran-2-ylmethoxy)pyridin-2-yl)piperazin-1-yl)methyl)-1-(oxetan-2-ylmethyl)-1H-benzo[d]imidazole-6-carboxylic acid] | 2.03 |
| O=C(O)c1ccc2nc(CN3CCN(c4cccc(OCc5nc6ccccc6s5)n4)CC3)n(C[C@@H]3CCO3)c2c1 [Compound 69, (S)-2-((4-(6-(benzo[d]thiazol-2-ylmethoxy)pyridin-2-yl)piperazin-1-yl)methyl)-1-(oxetan-2-ylmethyl)-1H-benzo[d]imidazole-6-carboxylic acid] | 0.394 |
| O=C(O)c1ccc2nc(CN3CCN(c4cccc(OCc5ccc6ccccc6c5)n4)CC3)n(C[C@@H]3CCO3)c2c1 [Compound 70, (S)-2-((4-(6-(naphthalen-2-ylmethoxy)pyridin-2-yl)piperazin-1-yl)methyl)-1-(oxetan-2-ylmethyl)-1H-benzo[d]imidazole-6-carboxylic acid] | 1.19 |
| Cn1c(COc2cccc(N3CCN(Cc4nc5ccc(C(=O)O)cc5n4C[C@@H]4CCO4)CC3)n2)nc2ccccc21 [Compound 71, (S)-2-((4-(6-((1-methyl-1H-benzo[d]imidazol-2-yl)methoxy)pyridin-2-yl)piperazin-1-yl)methyl)-1-(oxetan-2-ylmethyl)-1H-benzo[d]imidazole-6-carboxylic acid] | 15.7 |
| Cn1cnc2ccc(COc3cccc(N4CCN(Cc5nc6ccc(C(=O)O)cc6n5C[C@@H]5CCO5)CC4)n3)cc21 [Compound 72, (S)-2-((4-(6-((1-methyl-1H-benzo[d]imidazol-6-yl)methoxy)pyridin-2-yl)piperazin-1-yl)methyl)-1-(oxetan-2-ylmethyl)-1H-benzo[d]imidazole-6-carboxylic acid] | 4.6 |
| N#Cc1cc(F)c2c(c1)CCN(c1cccc(N3CCN(Cc4nc5ccc(C(=O)O)cc5n4C[C@@H]4CCO4)CC3)n1)C2 [Compound 73, (S)-2-((4-(6-(6-cyano-8-fluoro-3,4-dihydroisoquinolin-2(1H)-yl)pyridin-2-yl)piperazin-1-yl)methyl)-1-(oxetan-2-ylmethyl)-1H-benzo[d]imidazole-6-carboxylic acid] | 1.43 |
| N#Cc1ccc2c(c1)CCCN(c1cccc(N3CCN(Cc4nc5ccc(C(=O)O)cc5n4C[C@@H]4CCO4)CC3)n1)C2 [Compound 74, (S)-2-((4-(6-(7-cyano-1,3,4,5-tetrahydro-2H-benzo[c]azepin-2-yl)pyridin-2-yl)piperazin-1-yl)methyl)-1-(oxetan-2-ylmethyl)-1H-benzo[d]imidazole-6-carboxylic acid] | 141 |
| O=C(O)c1ccc2nc(CN3CCN(c4cccc(OCc5ccc6ncoc6c5)n4)CC3)n(C[C@@H]3CCO3)c2c1 [Compound 75, (S)-2-((4-(6-(benzo[d]oxazol-6-ylmethoxy)pyridin-2-yl)piperazin-1-yl)methyl)-1-(oxetan-2-ylmethyl)-1H-benzo[d]imidazole-6-carboxylic acid] | 2.17 |
| N#Cc1ccc2c(c1)CCCN2c1cccc(N2CCN(Cc3nc4ccc(C(=O)O)cc4n3C[C@@H]3CCO3)CC2)n1 [Compound 76, (S)-2-((4-(6-(6-cyano-3,4-dihydroquinolin-1(2H)-yl)pyridin-2-yl)piperazin-1-yl)methyl)-1-(oxetan-2-ylmethyl)-1H-benzo[d]imidazole-6-carboxylic acid] | > 500 |
| N#Cc1ccc2c(c1)CN(c1cccc(N3CCN(Cc4nc5ccc(C(=O)O)cc5n4C[C@@H]4CCO4)CC3)n1)CC2 [Compound 77, (S)-2-((4-(6-(7-cyano-3,4-dihydroisoquinolin-2(1H)-yl)pyridin-2-yl)piperazin-1-yl)methyl)-1-(oxetan-2-ylmethyl)-1H-benzo[d]imidazole-6-carboxylic acid] | 117 |
| N#Cc1cccc2c1CCCN(c1cccc(N3CCN(Cc4nc5ccc(C(=O)O)cc5n4C[C@@H]4CCO4)CC3)n1)C2 [Compound 78, (S)-2-((4-(6-(6-cyano-1,3,4,5-tetrahydro-2H-benzo[c]azepin-2-yl)pyridin-2-yl)piperazin-1-yl)methyl)-1-(oxetan-2-ylmethyl)-1H-benzo[d]imidazole-6-carboxylic acid] | 56.2 |
| N#Cc1cccc2c1CCN(c1cccc(N3CCN(Cc4nc5ccc(C(=O)O)cc5n4C[C@@H]4CCO4)CC3)n1)CC2 [Compound 79, (S)-2-((4-(6-(6-cyano-1,2,4,5-tetrahydro-3H-benzo[d]azepin-3-yl)pyridin-2-yl)piperazin-1-yl)methyl)-1-(oxetan-2-ylmethyl)-1H-benzo[d]imidazole-6-carboxylic acid] | 206 |
| N#Cc1cccc2c1CN(c1cccc(N3CCN(Cc4nc5ccc(C(=O)O)cc5n4C[C@@H]4CCO4)CC3)n1)CCC2 [Compound 80, (S)-2-((4-(6-(9-cyano-1,3,4,5-tetrahydro-2H-benzo[c]azepin-2-yl)pyridin-2-yl)piperazin-1-yl)methyl)-1-(oxetan-2-ylmethyl)-1H-benzo[d]imidazole-6-carboxylic acid] | 37.9 |
| NC(=O)c1cnc(COc2cccc(N3CCN(Cc4nc5ccc(C(=O)O)cc5n4C[C@@H]4CCO4)CC3)n2)nc1 [Compound 81, (S)-2-((4-(6-((5-carbamoylpyrimidin-2-yl)methoxy)pyridin-2-yl)piperazin-1-yl)methyl)-1-(oxetan-2-ylmethyl)-1H-benzo[d]imidazole-6-carboxylic acid] | 207 |
| O=C(O)c1ccc2nc(CN3CCN(c4cccc(OCc5ccc6ccccc6n5)n4)CC3)n(C[C@@H]3CCO3)c2c1 [Compound 82, (S)-1-(oxetan-2-ylmethyl)-2-((4-(6-(quinolin-2-ylmethoxy)pyridin-2-yl)piperazin-1-yl)methyl)-1H-benzo[d]imidazole-6-carboxylic acid] | 2.78 |
| C[C@@H]1c2ccc(C#N)cc2CCN1c1cccc(N2CCN(Cc3nc4ccc(C(=O)O)cc4n3C[C@@H]3CCO3)CC2)n1 [Compound 83] | 229 |
| C[C@H]1c2ccc(C#N)cc2CCN1c1cccc(N2CCN(Cc3nc4ccc(C(=O)O)cc4n3C[C@@H]3CCO3)CC2)n1 [Compound 84] | 102 |
| O=C(O)c1ccc2nc(CN3CCN(c4cccc(OCc5cc6ccccc6cn5)n4)CC3)n(C[C@@H]3CCO3)c2c1 [Compound 85, (S)-2-((4-(6-(isoquinolin-3-ylmethoxy)pyridin-2-yl)piperazin-1-yl)methyl)-1-(oxetan-2-ylmethyl)-1H-benzo[d]imidazole-6-carboxylic acid] | 6.11 |
